# Reference: patent publication EP0987025A1, “Pharmaceitical composition or composition package containing a pyrimidine nucleoside analogue and a purine nucleoside analogue” (priority 1998, dated 2000)
# Where two headings read alike, the source gives them in different places.
# Experiments:
# Type in all cases: in vivo, C57BL/6 mice
# LP-BM5 = settings: for Lymphad. (% inh.) / Splenom. (% inh.): about 4 months from infection
# Text: LP-BM5 virus was provided by Robert Yetter (Veternas Administration Hospital, Baltimore, MD) and was maintained in a persistently infected SC- 1 cell line as described (Hosier D.E., Yetter R.A., Morse H.C. III, "Functional T lymphocytes are required for a murine retrovirus induced immunodeficiency disease (MAIDS)", J. Exp. Med. 1987; 165:1737-42). C57BL/6 female mice were purchased from Nossan, Milan, Italy and were used at 5 weeks of age. Animals were infected by means of two successive intraperitoneal injections at 24-hr intervals. In the experiments reported three different virus preparations were used.
# Mice were housed at 22±1°C with a 12-hr light-dark cycle, 60±5% humidity, and 12 air changes/hr.
# First, the efficacy of 2-fluoro-ara-AMP (F-araAMP, Fludara) in inhibiting murine AIDS (MAIDS), a disease characterized by a lymphoproliferative disorder (lymphadenopathy and splenomegaly), associated with severe immunodeficiency and hypergammaglobulinemia, was evaluated. The disease develops in some strains of mice (C57BL/6) that are infected with a murine leukemia virus mixture termed LP-BM5. In the first preliminary experiments (after about 4 months from infection) LP-BMS infected animals were treated with three different concentrations of F-ara-AMP: 0.065 mg/mouse, 0.325 mg/mouse, 0.650 mg/mouse. The animals of each group were treated intraperitoneally for 3 days a week and for 3 weeks. At the end of the treatment animals were killed and splenomegaly, lymphadenopathy and hypergammaglobulinemia were evaluated.
# Infected mice after 7 weeks from infection were treated intraperitoneally with Fludara as follows: • 1. 0.65 mg/mouse once a day for 4 days a week (total dose 7.8 mg/mouse); • 2. 0.65 mg/mouse twice a day for 5 days a week (total dose 19.5 mg/mouse); • 3. […]
# BM5d proviral DNA = assay: PCR analysis of BM5d proviral DNA in spleen, lymph node and bone marrow; settings: for % of inhibition of BM5d proviral DNA, Bonemarrow / % of inhibition of BM5d proviral DNA, Lymphnode / % of inhibition of BM5d proviral DNA, Spleen: after 7 weeks of infection
# Text: The following oligonucleotide primers were used for the amplification of a 141-bp gag gene of defective virus genome (BM5d); 5' primer, 5'-AACCTTCCTCCTCTGCCA-3' (sense) corresponding to nucleotides 1456-1473 and 3' primer, 5'-ACCACCTCTCGGGCTTTC-3' (antisense) corresponding to nucleotides 1579-1596 of the BM5d genome (Chat topadhyay SK, Sengupta D.N., FredricksonT.N., Morse H.C. III, Hartley J.W., "Characteristics and contributions of defective, ecotropic and mink cell focus-inducing viruses in a retrovirus induced immunodeficiency syndrome of mice.", J..Virol. 1991; 65: 4232-41.). A second pair or oligonucleotide primers was used for amplification of 203-bp of the mouse glucose-6-phosphate dehydrogenase (G6PD) gene. This amplification served as an internal control (endogenous standard) for evaluation of the relative BM5d proviral DNA. The nucleotide primers for the amplification were as follows: 5' primer, 5'-[…]-3' (sense) and 3' primer, 5'-[…]-3' (antisense) (Kurdi-Haidar B., Mason P.J., Berrebi A., et al., "Origin and spread of the glucose-6-phosphate dehydrogenase variant (G6PD-Mediterranean) in the Middle East.", Am. J. Hum. Genet. 1990; 47:1013-19.).
# Probe D30, which was derived from the 137-bp Smal-Xhol p12 gag fragment of the defective virus genome (DU5H), was kindly provided by P. Jolicoeur (Montreal, Canada) (Aziz D.C., Hanna Z., Jolicoeur P., "Severe immunodeficiency disease induced by a defective murine leukemia virus.", Nature 1989; 338: 505-08).
# Total cellular DNA was isolated from the spleens, lymph nodes and bone marrow of uninfected, infected and infected/treated mice by the sodium iodide isopropanol method.
# PCR amplifications were performed in a 25 µl final volume using the Perkin Elmer GeneAMP kit (1 mM MgCl2, 2.5 U AmpliTag) with 0.3 µg total cellular DNA and 20 pmol of each primer.
# PCR reaction were carried out for 37 cycles at 95°C for 30 sec, 58°C for 30 sec and 72°C for 30 sec with a final extension at 72°C for 10 min.
# Products were analyzed by electrophoresis on agarose gel, blotted and hybridized with either the ^32P-labeled D30 or G6PD probe.
# The intensity of radiolabeled bands was analyzed and quantified in a GS-250 Molecular Imager™ (Bio-Rad, Hercules, CA, USA). For BM5d proviral DNA detection the relative integration was determined by dividing the intensity of the BM5d bands by the intensity of G6PD bands (Fraternale A., Casabianca A., Rossi L., et al., "Inhibition of murine AIDS by combination of AZT and dideoxycytidine 5'-triphosphate.", J. Acquir. Imm. Def Syndr. and Hum. Retrovir. 1996; 12:164-73). The percentages of inhibition were referred to the infected mice.
# circulating B cells = assay: Flow cytometry of circulating lymphocytes; settings: after Fludara suspension
# Text: Whole blood samples were stained with antimouse L3T4/CD4 fluorescein isothiocyanate (FITC) conjugated (Boehringer Mannheim Biochemica) for the detection of CD4^+ lymphocytes, antimouse Ly-2R phycoerythrin (PE) conjugated (Boehringer Mannheim Biochemica) for the detection of CD8a lymphocytes, antimouse Thy-1.2 FITC conjugated (Boehringer Mannheim Biochemica) for the detection of T cells, and antimouse Ly 5 (B220)-PE Monoclonal antibody (Cederlane, Ontario, Canada) for the detection of committed B cell precursors. Samples were analyzed by FACS (Becton Dickinson).
# [1] = 0.065 mg/mouse i.p. 3 days a week for 3 weeks
# [2] = 0.325 mg/mouse i.p. 3 days a week for 3 weeks
# [3] = 0.650 mg/mouse i.p. 3 days a week for 3 weeks
# [4] = group a: 3.0 mg i.p. once a day for 5 consecutive days, 4 weeks, after 7 weeks of infection
# [5] = group b: 3.0 mg i.p. twice a day for 5 consecutive days, 4 weeks, after 7 weeks of infection
# [6] = group c: 10 mg in drinking water for 5 consecutive days, 4 weeks, after 7 weeks of infection
# [7] = group d: 15 mg in drinking water for 5 consecutive days, 4 weeks, after 7 weeks of infection
# [8] = regime 1: 0.65 mg once a day 4 days/week for 3 weeks i.p., after 7 weeks of infection
# [9] = regime 2: 0.65 mg twice a day 5 days/week for 4 weeks i.p., after 7 weeks of infection
# [10] = regime 3: 3.00 mg once a day 5 days/week for 3 weeks i.p., after 7 weeks of infection
# [11] = treatment c: after 6 weeks of infection 3 mg F-ara-AMP i.p. twice a day, 5 consecutive days, 4 weeks, at 10 weeks after infection
# [12] = treatment g: after 6 weeks of infection 3 mg F-ara-AMP i.p. twice a day 4 weeks, then interrupted, at 14 weeks after infection
# [13] = group a: 3.0 mg i.p. once a day for 5 consecutive days, 4 weeks
# [14] = group b: 3.0 mg i.p. twice a day for 5 consecutive days, 4 weeks
# [15] = group c: 10 mg in drinking water for 5 consecutive days, 4 weeks
# [16] = group d: 15 mg in drinking water for 5 consecutive days, 4 weeks
# [17] = treatment g: after 6 weeks of infection 3 mg F-ara-AMP i.p. twice a day 4 weeks, then interrupted, at 15 weeks after infection
structure (smiles),measurement,setting,value
"Nc1nc(F)nc2c1ncn2[C@@H]1O[C@H](COP(=O)(O)O)[C@@H](O)[C@@H]1O [F-ara-AMP, Fludarabine phosphate]",Lymphad. (% inh.),LP-BM5; [1],20±15%
same,Splenom. (% inh.),LP-BM5; [1],0%
same,Lymphad. (% inh.),LP-BM5; [2],26±9%
same,Splenom. (% inh.),LP-BM5; [2],0%
same,Lymphad. (% inh.),LP-BM5; [3],49±6%
same,Splenom. (% inh.),LP-BM5; [3],0%
same,Lymph node w.,LP-BM5; [4],0.54 ± 0.32 g
same,Spleen w.,LP-BM5; [4],0.50 ± 0.25 g
same,Lymph node w.,LP-BM5; [5],0.05 ± 0.02 g
same,Spleen w.,LP-BM5; [5],0.22 ± 0.06 g
same,Lymph node w.,LP-BM5; [6],0.16 ± 0.16 g
same,Spleen w.,LP-BM5; [6],0.31 ± 0.09 g
same,Lymph node w.,LP-BM5; [7],0.28 ± 0.23 g
same,Spleen w.,LP-BM5; [7],0.28 ± 0.13 g
same,Lymph node w.,LP-BM5; [8],2.63 ± 0.57 g
same,Spleen weight,LP-BM5; [8],1.01 ± 0.24 g
same,Lymph node w.,LP-BM5; [9],2.11 ± 0.54 g
same,Spleen weight,LP-BM5; [9],0.87 ± 0.20 g
same,Lymph node w.,LP-BM5; [10],1.75 ± 0.53 g
same,Spleen weight,LP-BM5; [10],0.84 ± 0.17 g
same,Lymph node w.,LP-BM5; [11],0.042 ± 0.018 g
same,Spleen w.,LP-BM5; [11],0.130 ± 0.004 g
same,Lymph node w.,LP-BM5; [12],0.290 ± 0.05 g
same,Spleen w.,LP-BM5; [12],0.41 ± 0.200 g
same,"% of inhibition of BM5d proviral DNA, Bonemarrow",BM5d proviral DNA; [13],0%
same,"% of inhibition of BM5d proviral DNA, Lymphnode",BM5d proviral DNA; [13],19.76±11.10 %
same,"% of inhibition of BM5d proviral DNA, Spleen",BM5d proviral DNA; [13],25.74±17.54%
same,"% of inhibition of BM5d proviral DNA, Bonemarrow",BM5d proviral DNA; [14],22.94±7.40 %
same,"% of inhibition of BM5d proviral DNA, Lymphnode",BM5d proviral DNA; [14],54.63±13.12 %
same,"% of inhibition of BM5d proviral DNA, Spleen",BM5d proviral DNA; [14],39.85±16.70 %
same,"% of inhibition of BM5d proviral DNA, Bonemarrow",BM5d proviral DNA; [15],28.05±8.84 %
same,"% of inhibition of BM5d proviral DNA, Lymphnode",BM5d proviral DNA; [15],30.33±19.67 %
same,"% of inhibition of BM5d proviral DNA, Spleen",BM5d proviral DNA; [15],15.16±11.46%
same,"% of inhibition of BM5d proviral DNA, Bonemarrow",BM5d proviral DNA; [16],21.69±9.02 %
same,"% of inhibition of BM5d proviral DNA, Lymphnode",BM5d proviral DNA; [16],12.16±5.48%
same,"% of inhibition of BM5d proviral DNA, Spleen",BM5d proviral DNA; [16],27.40±8.47 %
same,"bone marrow, BM5d proviral DNA copy number (E)",BM5d proviral DNA; [11],"19,750±1,485 Proviral DNA molecules per 0.3 µg of total cellular DNA"
same,"bone marrow, inhibition of BM5d (% vs. Infected) (F)",BM5d proviral DNA; [11],30.32±5.24 %
same,"lymph node, BM5d proviral DNA copy number (C)",BM5d proviral DNA; [11],"49,500±7758 Proviral DNA molecules per 0.3 µg of total cellular DNA"
same,"lymph node, inhibition of BM5d (% vs. Infected) (D)",BM5d proviral DNA; [11],77.46±3.53 %
same,"spleen, BM5d proviral DNA copy number (A)",BM5d proviral DNA; [11],"37,900±15,717 Proviral DNA molecules per 0.3 µg of total cellular DNA"
same,"spleen, inhibition of BM5d (% vs. Infected) (B)",BM5d proviral DNA; [11],74.27 ± 10.67 %
same,"bone marrow, BM5d proviral DNA copy number (E)",BM5d proviral DNA; [17],"33,900±3,736 Proviral DNA molecules per 0.3 µg of total cellular DNA"
same,"lymph node, BM5d proviral DNA copy number (C)",BM5d proviral DNA; [17],"180,000±8,544 Proviral DNA molecules per 0.3 µg of total cellular DNA"
same,"lymph node, inhibition of BM5d (% vs. Infected) (D)",BM5d proviral DNA; [17],34.00±3.13 %
same,"spleen, BM5d proviral DNA copy number (A)",BM5d proviral DNA; [17],"135,000±47,444 Proviral DNA molecules per 0.3 µg of total cellular DNA"
same,"spleen, inhibition of BM5d (% vs. Infected) (B)",BM5d proviral DNA; [17],31.47±24.08%
same,number of circulating B cells after suspension of administration,circulating B cells,returns to normal values
